# According to ChEMBL document CHEMBL3769368, “Semi-synthesis and anti-tumor evaluation of novel 25-hydroxyprotopanaxadiol derivatives as apoptosis inducing agents” (Medchemcomm, 2015):
# The source made the active and inactive calls. The rule behind the calls is not given here.
# Experiments:
# [1] = system: DU-145; test: Induction of morphological changes in human DU145 cells assessed as decrease in cell size at 20 uM after 12 hrs by inverted microscopy; format: functional, cell-based
# [2] = system: DU-145; test: Induction of morphological changes in human DU145 cells assessed as spherical cells at 20 uM after 12 hrs by inverted microscopy; format: functional, cell-based
# [3] = Antiproliferative activity against human DU145 cells after 48 hrs by MTT assay; format: functional, cell-based; conditions: DU-145, 48 h
# [4] = Antiproliferative activity against human PC3 cells after 48 hrs by MTT assay; format: functional, cell-based; conditions: PC-3, 48 h
# [5] = Antiproliferative activity against human BGC823 cells after 48 hrs by MTT assay; format: functional, cell-based; conditions: BGC-823, 48 h
# [6] = Antiproliferative activity against human alpha-2 cells after 48 hrs by MTT assay; format: functional, cell-based
# [7] = system: MDA-MB-231; test: Antiproliferative activity against human MDA-MB-231 cells after 48 hrs by MTT assay; format: functional, cell-based; conditions: MDA-MB-231, 48 h
# [8] = Cytotoxicity against human IOSE-144 cells after 48 hrs by MTT assay; format: cell-based; conditions: IOSE-144, 48 h
# [9] = system: DU-145; test: Induction of morphological changes in human DU145 cells assessed as formation of bubble-shaped regions at 20 uM after 12 hrs by inverted microscopy; format: functional, cell-based
# [10] = system: DU-145; test: Induction of apoptosis in human DU145 cells assessed as chromatin nucleus condensation at 20 uM after 12 hrs by DAPI staining-based fluorescence microscopy; format: functional, cell-based
# [11] = system: DU-145; test: Induction of apoptosis in human DU145 cells assessed as formation of apoptotic bodies at 20 uM after 12 hrs by DAPI staining-based fluorescence microscopy; format: functional, cell-based
# [12] = system: DU-145; test: Induction of cell cycle arrest in human DU145 cells assessed as accumulation at Sub G1 phase at 20 uM after 6 hrs by propidium iodide staining-based flow cytometry (reference value: 1.57 to 1.59%); format: functional
# [13] = system: DU-145; test: Induction of cell cycle arrest in human DU145 cells assessed as accumulation at Sub G1 phase at 20 uM after 12 hrs by propidium iodide staining-based flow cytometry (reference value: 1.57 to 1.59%); format: functional
# [14] = system: DU-145; test: Induction of cell cycle arrest in human DU145 cells assessed as accumulation at Sub G1 phase at 20 uM after 3 hrs by propidium iodide staining-based flow cytometry (reference value: 1.57 to 1.59%); format: functional
# [15] = system: DU-145; test: Induction of cell cycle arrest in human DU145 cells assessed as accumulation at Sub G1 phase at 20 uM after 18 hrs by propidium iodide staining-based flow cytometry (reference value: 1.57 to 1.59%); format: functional
SMILES,Activity [1],Activity [2],IC50 [3],IC50 [4],IC50 [5],IC50 [6],IC50 [7],IC50 [8],Activity [9],Activity [10],Activity [11],Activity [12],Activity [13],Activity [14],Activity [15]
CC(C)(O)CCC[C@@](C)(O)[C@H]1CC[C@]2(C)[C@@H]1[C@H](O)C[C@@H]1[C@@]3(C)CC[C@H](OC(=O)[C@@H](N)CCCNC(=N)N)C(C)(C)[C@@H]3CC[C@]12C,Active,Active,5.5 µM,6.1 µM,4.6 µM,7.1 µM,4.2 µM,> 100 µM,Active,Active,Active,16.29%,34.07%,7.37%,–
CC[C@H](C)[C@H](NC(=O)OC(C)(C)C)C(=O)O[C@@H]1C[C@@H]2[C@@]3(C)CC[C@H](O)C(C)(C)[C@@H]3CC[C@@]2(C)[C@]2(C)CC[C@H]([C@](C)(O)CCCC(C)(C)O)[C@@H]12,–,–,> 100 µM,> 100 µM,> 100 µM,81 µM,> 100 µM,> 100 µM,–,–,–,–,–,–,–
CC(C)(O)CCC[C@@](C)(O)[C@H]1CC[C@]2(C)[C@@H]1[C@H](O)C[C@@H]1[C@@]3(C)CC[C@H](OC(=O)[C@@H](N)CCC(=O)O)C(C)(C)[C@@H]3CC[C@]12C,Active,Active,6.5 µM,9.9 µM,6.9 µM,6.2 µM,4.2 µM,> 100 µM,Active,Active,Active,9.81%,13.39%,–,30.53%
